row,SMILES,melting point
1,CSc1ccc(-c2nc(SC)c(C#N)c(=O)n2-c2ccc(C)c(C)c2)cc1,234 to 236 °C
2,Cc1cc(-c2nc3cccnn3c2-c2ccnc(NC(=O)c3ccoc3)c2)ccc1F,199 to 200 °C
3,COc1ccccc1-n1c(=O)[nH]c2ccc(-c3cccc(O)c3)nc21,240 to 242 °C
4,CCOC(=O)CCCN(C(=O)CC)C(c1ccccc1)c1ccccc1,83 to 85 °C
5,CC1(C)Cc2cc(NC(N)=O)c3c(c2C(c2ccccc2)=N1)CC(C)(C)O3,151 to 153 °C
6,CCCCN1C(=O)C2C3CCC(O3)C2C1=O (stereo unspecified),82 to 83 °C
7,Cc1c(O)ccc(-c2ccc(C#N)cc2)c1C,174 to 176 °C
8,CC(C)(C)OC(=O)N1CCC(Oc2cccc3[nH]ncc23)C1 (stereo unspecified),196 to 198 °C
9,CC(=O)N1C[C@H]2CCC[C@H]2OC1=O (relative stereo),80 to 83 °C
10,O=[N+]([O-])c1ccc(CN2CCC(c3cc(-c4ccc(Cl)cc4)[nH]n3)CC2)cc1,187 to 190 °C
11,CC(ON=Cc1c(F)cccc1Cl)C(=O)O (stereo unspecified),106 to 107 °C
12,COC(=O)c1cc(C(=O)NCC(=O)O)cc([N+](=O)[O-])c1,142 to 143 °C
13,CCOC(=O)C(C)=Cc1ccc([N+](=O)[O-])cc1,75 °C
14,Cc1cc(C2=C(c3cc(C)sc3C)CCC=C2)c(C)s1,55 to 57 °C
15,N#Cc1c(Br)c(C(F)(F)F)n(COC(=O)C2CC2)c1-c1ccc(Cl)cc1,122 to 123 °C
16,Cn1cnnc1SCC(=O)C12CC3CC(CC(C3)C1)C2,134 to 136 °C
17,O=C1C2=C(SCCO2)C(=O)N1c1ccc(Cl)cn1,152 °C
18,Cc1cccc(NC(=O)NC(Cc2ccccc2)C(=O)O)c1 (racemic),182 °C
19,CCOc1cc([N+](=O)[O-])ccc1NC(C)=O,164 to 165 °C
20,COC(=O)c1ccc(F)c2c1C=CCO2,73.5 to 74.5 °C
21,CC(=O)NC[C@H]1CN(c2ccc(N3CCC(=C(C#N)CCO)CC3)c(F)c2)C(=O)O1,192 to 194 °C
22,COc1ccc(C(=O)Nc2ccccc2)cc1NS(=O)(=O)c1ccc(F)cc1F,198 to 200 °C
23,COc1ccc2nc(NC(=O)C(CC3CCCC3)c3ccc(S(=O)(=O)N(C)C)cc3)sc2n1 (stereo unspecified),229 to 234 °C
24,CC1(C)C(=O)Nc2cc3[nH]c(O)nc3cc21,> 300 °C
25,N#CCOC(=O)c1ccc(CNC(=O)CCCCCN2C(=O)C=CC2=O)cc1O,141 to 144 °C
26,COc1cc(CN(C)c2nn(-c3ccccc3)cc2C=O)ccc1OCc1nc(-c2ccco2)oc1C,101 to 102 °C

row,SMILES,melting point
1,CN1C(=O)CC[C@]2(C)c3ccc(-c4ccc5ccccc5c4)cc3CC[C@@H]12,221 to 223 °C
2,CCCCS(=O)(=O)Nc1ccc(OCc2ccc3ccccc3n2)cc1,113 °C
3,O=Cc1c(Cl)c(Cl)c(Cl)c(Cl)c1Cl,201 to 203 °C
4,CC(=O)NCc1cc2n(n1)-c1ccc([N+](=O)[O-])cc1C(c1ccccc1)=NC2,208 to 211 °C
5,COc1ccc(C(=O)c2cccc(N)c2)cc1OC,157 to 175 °C
6,COc1cc(C[C@H](NC(=O)OC(C)(C)C)C(=O)O)cc(OC)c1OC,76 to 80 °C
7,C=CCc1cc2c(c(CC=C)c1O)OCC(=O)N2CC=C,91 to 92 °C
8,CCOc1cc2c3cc(OCC)c(OCC)cc3c3c(OC)ccc(OC)c3c2cc1OCC,157 to 158 °C
9,CN(Cc1ccccc1)c1nc(Cl)ncc1F,47 to 49 °C
10,CC(=O)Nc1cccc(C#CCCn2nc3ccccc3n2)n1,93 to 94 °C
11,CC1CC2C3CC(Cl)C4=CC(=O)C=CC4(C)C3(Cl)C(O)CC2(C)C1C(=O)COC(=O)C(C)(C)C (stereo unspecified),238 °C
12,CNC(=S)C1(c2ccc3ccccc3n2)CCCS1 (stereo unspecified),124 °C
13,CCCc1c(OCCCCCCc2cc(OC)c(OC)c(C(C)C)c2)ccc(C(=O)O)c1O,106 to 108 °C
14,COc1cccc(-c2nc3n(n2)CCc2ccccc2-3)c1,94 to 96 °C
15,COc1ccc(S(=O)(=O)NCc2ccc(-n3c(-c4cccnc4N)nc4cc(Br)cnc43)cc2)cc1,188 to 190 °C
16,O=c1c(-c2cccc(C(F)(F)F)c2)coc2cc(O)c(O)cc12,274 to 275 °C
17,CS(=O)(=O)NC1Cc2ccc(C3=NNC(=O)CC3)cc2C1 (stereo unspecified),218 to 220 °C
18,Cn1nc(C(F)(F)F)n(-c2ccc([N+](=O)[O-])cc2Cl)c1=S,152 to 155 °C
19,O=C(OCCOC(c1ccccc1)(c1ccccc1)c1ccccc1)Oc1ccc([N+](=O)[O-])cc1,136 to 141 °C
20,NNc1cc(-c2ccccc2)c2cc(Cl)ccc2n1,156 to 157 °C
21,Cc1cccc(C)c1C(=O)OC1CCCCC1=O (stereo unspecified),82 to 83 °C
22,CN1CCN(C2=Nc3cc(Br)ccc3N3CCc4cc(Br)cc2c43)CC1,215 to 216 °C
23,O=C1Nc2ccccc2C1=Cc1ccccc1,177 to 179 °C
24,O=C(CC1CCCCC1=O)c1ccc(O)cc1 (stereo unspecified),120 to 125 °C
25,Cn1c(NCCCOc2cccc(CN3CCCCC3)c2)nc2ccccc21,153 to 154 °C
26,CC(=O)c1ccc(-c2cnn3c(O)ncnc23)cc1,> 300 °C

row,SMILES,melting point
1,Cc1ccc(S(=O)(=O)N2CCC[C@H](CBr)c3ccccc32)cc1,110 to 111 °C
2,CCOC(=O)c1c(O)ncnc1CC,84.5 to 86 °C
3,COc1ccccc1C(C)(O)c1ccccc1OC,122 to 123 °C
4,COc1ccc(C(=O)OCCN2CCC(Nc3nc4ccccc4n3Cc3ccc(F)cc3)CC2)cc1,189 °C
5,COC(=O)c1cc(-c2ccccn2)n(-c2ccc(Cl)nn2)n1,164 to 165 °C
6,COc1ccc(C2=NNC(=O)Cc3cc4c(cc32)OCO4)cc1,194 to 196 °C
7,CC(C)(C)c1cc(-c2csc(CO)n2)cc(C(C)(C)C)c1O,126 to 127 °C
8,CC(C)c1nc(COCc2ccccc2)n(C(C)F)c1Sc1cc(Cl)cc(Cl)c1 (stereo unspecified),131 to 132 °C
9,CN1C(=O)N(CC(=O)O)C(=O)C1(C)C,130 to 132 °C
10,CCOC(=O)CNC(=O)Oc1ccc([N+](=O)[O-])c2cccnc12,121 to 122 °C
11,CC(C(=O)O)c1ccc2c(=O)c3ccccc3ccc2c1 (stereo unspecified),108 to 110 °C
12,CCCCCCCCC(=O)NCc1ccc(C(=O)O)cc1,178 to 180 °C
13,CC(C)(C)C(NC(=O)C(=O)Nc1cccnc1)NC(=O)c1ccc(Cl)cc1 (stereo unspecified),168 to 170 °C
14,COCCC(=O)Nc1cccc(-c2cccc3cc(Cc4cccc(C(F)(F)F)c4)sc23)c1,102 to 103 °C
15,CN1CC=C(C2=C(C#N)C(c3cccc4nonc34)c3c[nH]nc3N2)CC1 (stereo unspecified),218 °C
16,C[C@H](NC(=O)Cc1cc(F)cc(F)c1)C(=O)N[C@@H]1C(=O)NCCS[C@@H]1c1ccccc1,128 to 133 °C
17,CC1(c2ccccc2)OC(=O)C(=O)CC1=O (stereo unspecified),142 to 144 °C
18,O=C(O)CCc1cccc(C(O)(C(F)(F)F)C(F)(F)F)c1,112 to 113 °C
19,N#Cc1ccc(S(=O)(=O)c2ccc(S(N)(=O)=O)s2)c(F)c1,200 to 202 °C
20,COC(=O)C(OCc1csc(-c2ccc(F)cc2)n1)C(=O)c1ccccc1 (stereo unspecified),86 to 89 °C
21,CSc1nc2cc(Cl)c(Cl)cc2n1C,110 °C
22,N#CNC(=O)[C@@H]1CCC(=O)N1C(=O)OCc1ccccc1,185 to 186 °C
23,CN(CC(=O)OC(C)(C)C)c1cncc(-c2nc(=O)c3ccccc3s2)n1,189 to 190 °C
24,Cc1sc(Cc2ccc(Br)cc2)c(C(=O)c2ccc(OS(=O)(=O)c3cnn(C)c3)c(C3CCCC3)c2)c1C,55 to 60 °C
25,CCCCOc1ccc(S(=O)(=O)C2(C(=O)NO)CCN(Cc3ccc(OCCN4CCCCC4)cc3)CC2)cc1,155 °C
26,Cc1cc(C(=O)Nc2cccc(Oc3ccc4nc(NC(=O)CN(C)C)cn4n3)c2)n(C)n1,210 °C

row,SMILES,melting point
1,O=C(O)Cn1c(=O)c(=O)[nH]c2ccc3ccc(-n4ccc(CNC(=O)Nc5ccccc5)c4)cc3c21,> 230 °C
2,CN(C)C1(c2ccccc2)CCC(c2[nH]c3ccccc3c2Cc2ccccc2)CC1 (stereo unspecified),194 to 199 °C
3,O=C(O)c1ccccc1COc1cccc(Br)c1,158 to 159 °C
4,Cc1cn2ccccc2c1S(=O)(=O)c1ccc(O)cc1,177 °C
5,O=C(O)COc1ccc(C(=O)c2cccc3ccccc23)c(Cl)c1Cl,173 to 175 °C
6,COc1cc(-c2ccc3ncc(NC(=O)Nc4ccccc4)nc3n2)ccc1O,240 °C
7,COc1cccc2c1C[C@H]1C[C@@H](CN3CCC(NC(=O)C(c4ccccc4)c4ccccc4)CC3)CN(C)[C@@H]1C2,219 to 222 °C
8,COc1cc(C(C)=O)cc(OC)c1OCCCN1CCC(c2noc3cc(F)ccc23)CC1,107 to 108 °C
9,O=C(CBr)CS(=O)(=O)C(c1ccc(Cl)cc1)c1ccc(Cl)cc1,122 to 123 °C
10,O=C(Nc1ccc2ccc(Cl)nc2n1)c1ccc(Cl)cc1,268 °C
11,N#Cc1nn(-c2c(Cl)cc(C(F)(F)F)cc2Cl)cc1-c1cc(Br)no1,145 °C
12,CC1CC(=O)Nc2nc(C#N)c3ncccc3c21 (stereo unspecified),> 300 °C
13,O=C1c2[nH]c3cc(-c4ccccc4)nn3c(=O)c2CCN1C1CCCCC1,> 320 °C
14,CCCOc1ccccc1CCCOc1ccc2c(c1)C=C(C(=O)O)CCS2(=O)=O,153 to 157 °C
15,CCCCCCCCCCCCCCCCCCCCC(CCCCCCCCCCCCCC)C(=O)O (stereo unspecified),65 to 67 °C
16,NC(=O)NN=C(CCl)COc1ccc(Cl)cn1,115 to 117 °C
17,CCOC(=O)C1=C(COCc2cccnc2)NC(COCc2cccnc2)=C(C(=O)OCC)C1c1ccccc1[N+](=O)[O-],142 to 145 °C
18,C=CC(=O)NC(=O)CC(C)=O,128 to 130 °C
19,COc1ccc(/C=C(\C)[N+](=O)[O-])cc1OCc1ccccc1,102 to 104 °C
20,CCC(=O)SCC(C)C(=O)N1C(C(=O)O)CC2CCCCC21 (stereo unspecified),170 to 172 °C
21,CC(=O)c1ccc2ccc(C(=O)O)cc2c1,224 to 228 °C
22,CCOc1ccc(CC(=O)O)cc1OCCCc1cn(-c2ccc(C(F)(F)F)cn2)nc1C(C)C,116 to 117 °C
23,Fc1ccc(Nc2ncnc3cnc(N4CCC(N5CCCC5)CC4)nc23)cc1Cl,202 to 204 °C

# Source: a melting point compilation (Tetko et al.; mined from patent text by program, amines drawn as free bases though some values may be those of a salt)
